Calls of active or inactive are those of the source. The calls are words filed in the database; no cut-off is given here.
What was measured:
[1] = target: T1, Estrogen receptor (Homo sapiens) (UniProt P03372); test: Induction of ERalpha degradation in human MDA-MB-361 cells incubated 24 hrs by Western blot analysis; format: cell-based; settings: dose 0.1-1000 nM, DDE = dose-dependent effect
T1 sequence (whole entry): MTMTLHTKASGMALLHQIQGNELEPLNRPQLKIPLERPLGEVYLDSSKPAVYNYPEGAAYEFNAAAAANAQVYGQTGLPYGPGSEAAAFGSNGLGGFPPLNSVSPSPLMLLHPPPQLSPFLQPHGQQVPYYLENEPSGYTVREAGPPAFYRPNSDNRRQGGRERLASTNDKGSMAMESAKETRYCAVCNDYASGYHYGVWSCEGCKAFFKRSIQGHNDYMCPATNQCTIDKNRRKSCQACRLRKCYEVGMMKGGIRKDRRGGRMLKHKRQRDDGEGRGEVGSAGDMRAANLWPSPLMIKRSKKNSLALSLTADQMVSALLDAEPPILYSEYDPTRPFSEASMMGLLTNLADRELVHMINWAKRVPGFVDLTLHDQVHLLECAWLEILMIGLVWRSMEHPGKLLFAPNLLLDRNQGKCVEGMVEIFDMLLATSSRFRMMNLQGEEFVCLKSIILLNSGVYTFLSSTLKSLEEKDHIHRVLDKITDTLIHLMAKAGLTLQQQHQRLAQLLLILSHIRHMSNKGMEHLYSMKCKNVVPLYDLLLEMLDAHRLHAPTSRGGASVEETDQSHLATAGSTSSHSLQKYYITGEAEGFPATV

[2] = target: T1, Estrogen receptor (Homo sapiens); test: Induction of ERalpha degradation in human MCF7 cells at 1 nM by Western blot analysis; format: cell-based; settings: time 0.5-24 hrs, TDE = time-dependent effect
[3] = target: T1, Estrogen receptor (Homo sapiens); test: Induction of ERalpha degradation in human T47D cells incubated 24 hrs by Western blot analysis; format: cell-based; settings: dose 0.1-1000 nM, DDE = dose-dependent effect
[4] = MRT in ICR mouse at 5 mg/kg, po measured up to 24 hrs by LC/MS/MS analysis; format: ADME, organism-based; settings: in vivo
[5] = Clearance in ICR mouse at 2 mg/kg, iv measured up to 24 hrs by LC/MS/MS analysis; format: ADME, organism-based; settings: in vivo
[6] = Ratio of drug concentration in rat brain to plasma at 20 mg/kg, po measured after 2 hrs
MCF7 [7] = test: Antitumor activity against tamoxifen-sensitive human MCF7 cells xenografted in athymic mouse assessed as reduction in tumor growth at 15 mg/kg, po qd measured after 21 days; settings: 504 h, read-out: TGI
[8] = Cmax in Sprague-Dawley rat at 10 mg/kg, po measured up to 24 hrs by LC/MS/MS analysis; format: ADME, organism-based; set-up: time < 24 hrs, dose 10 mg/kg, route po; settings: in vivo
[9] = Volume of distribution at steady state in ICR mouse at 2 mg/kg, iv measured up to 24 hrs by LC/MS/MS analysis; format: ADME, organism-based; settings: in vivo, read-out: Vdss
[10] = Tmax in Sprague-Dawley rat at 10 mg/kg, po measured up to 24 hrs by LC/MS/MS analysis; format: ADME, organism-based; settings: in vivo
[11] = target: T1, Estrogen receptor (Homo sapiens); test: Induction of ERalpha degradation in human CAMA-1 cells incubated 24 hrs by Western blot analysis; format: cell-based; settings: dose 0.1-1000 nM, DDE = dose-dependent effect
[12] = target: T1, Estrogen receptor (Homo sapiens); test: Induction of ERalpha degradation in human MCF7 cells at 5 uM incubated 24 hrs by Western blot analysis; format: cell-based
[13] = Toxicity in athymic mouse xenografted with tamoxifen-sensitive human MCF7 cells assessed as body weight loss at 5 to 15 mg/kg, po qd incubated for 21 days; format: organism-based; settings: in vivo, 504 h, dose 5-15 mg/kg, time 21 day
T47D = test: Antiproliferative activity against human T47D cells assessed as inhibition of cell growth measured after 7 days by cell titre glo luminescence assay; format: functional, cell-based; settings: time 7.0 day
[14] = Elimination half life in ICR mouse at 5 mg/kg, po measured up to 24 hrs by LC/MS/MS analysis; format: ADME, organism-based; settings: in vivo, read-out: beta t1/2 (converted)
[15] = Antiproliferative activity against human MCF-7/TAMR-1 cells assessed as inhibition of cell growth measured after 8 days by cell titre glo luminescence assay; settings: MCF-7/TAMR-1, 192 h
[16] = Drug concentration in rat brain at 20 mg/kg, po measured after 2 hrs; format: ADME, organism-based; settings: read-out: Ct
[17] = Drug concentration in rat breast at 20 mg/kg, po measured after 2 hrs; format: ADME, organism-based; settings: read-out: Ct
Estrogen receptor [18] = target: T2, Estrogen receptor (Homo sapiens, UniProt P03372); test: Induction of ERalpha degradation in human MCF7 cells incubated for 24 hrs by Western blot analysis; format: cell-based
T2 sequence (P03372 whole entry): T1 sequence (whole entry)

[19] = Drug concentration in rat kidney at 20 mg/kg, po measured after 2 hrs; format: ADME, organism-based; settings: read-out: Ct
MDA-MB-361 = test: Antiproliferative activity against human MDA-MB-361 cells assessed as inhibition of cell growth measured after 10 days by cell titre glo luminescence assay; format: functional, cell-based; settings: time 10.0 day
[20] = Ratio of drug concentration in rat breast to plasma at 20 mg/kg, po measured after 2 hrs
[21] = Elimination half life in ICR mouse at 2 mg/kg, iv measured up to 24 hrs by LC/MS/MS analysis; format: ADME, organism-based; settings: in vivo, read-out: beta t1/2 (converted)
[22] = target: T1, Estrogen receptor (Homo sapiens); test: Induction of ERalpha degradation in human BT-474 cells incubated 24 hrs by Western blot analysis; format: cell-based; settings: dose 0.1-1000 nM, DDE = dose-dependent effect
Estrogen receptor [23] = target: Estrogen receptor (Homo sapiens, UniProt P03372, D538G); test: Antagonist activity at ERalpha D538G mutant degradation in human SK-BR-3 cells incubated for 24 hrs in presence of beta-estradiol by luciferase gene assay; format: cell-based
Chain of Estrogen receptor (Homo sapiens, UniProt P03372, D538G) (P03372 whole entry D538G): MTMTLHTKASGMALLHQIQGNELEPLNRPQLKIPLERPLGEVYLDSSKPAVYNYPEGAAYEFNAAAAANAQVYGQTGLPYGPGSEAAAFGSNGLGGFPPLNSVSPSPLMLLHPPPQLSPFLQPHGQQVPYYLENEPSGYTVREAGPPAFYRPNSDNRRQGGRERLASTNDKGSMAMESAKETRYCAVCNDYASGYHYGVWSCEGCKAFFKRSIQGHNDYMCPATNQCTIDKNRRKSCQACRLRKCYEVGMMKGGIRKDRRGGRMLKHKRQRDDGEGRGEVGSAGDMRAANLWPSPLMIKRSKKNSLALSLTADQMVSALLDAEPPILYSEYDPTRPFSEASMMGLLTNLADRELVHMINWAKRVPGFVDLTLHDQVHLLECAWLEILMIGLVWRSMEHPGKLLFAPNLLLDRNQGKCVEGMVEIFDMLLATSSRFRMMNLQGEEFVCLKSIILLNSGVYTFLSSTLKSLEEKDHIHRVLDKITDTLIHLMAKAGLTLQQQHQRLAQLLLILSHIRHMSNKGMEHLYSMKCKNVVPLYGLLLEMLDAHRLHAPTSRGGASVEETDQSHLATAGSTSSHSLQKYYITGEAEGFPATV

MCF7 [24] = test: Antiproliferative activity against human MCF7 cells assessed as inhibition of cell growth measured after 6 days by cell titre glo luminescence assay; settings: MCF7, 144 h
[25] = Oral bioavailability in ICR mouse at 5 mg/kg measured up to 24 hrs by LC/MS/MS analysis; format: ADME, organism-based; settings: in vivo
[26] = Cmax in ICR mouse at 5 mg/kg, po measured up to 24 hrs by LC/MS/MS analysis; format: ADME, organism-based; set-up: dose 5 mg/kg, time < 24 hrs, route po; settings: in vivo
[27] = Ratio of drug concentration in rat liver to plasma at 20 mg/kg, po measured after 2 hrs
[28] = Drug concentration in rat liver at 20 mg/kg, po measured after 2 hrs; format: ADME, organism-based; settings: read-out: Ct
[29] = MRT in Sprague-Dawley rat at 10 mg/kg, po measured up to 24 hrs by LC/MS/MS analysis; format: ADME, organism-based; settings: in vivo
[30] = MRT in ICR mouse at 2 mg/kg, iv measured up to 24 hrs by LC/MS/MS analysis; format: ADME, organism-based; settings: in vivo
[31] = Ratio of drug concentration in rat uterus to plasma at 20 mg/kg, po measured after 2 hrs; settings: female
[32] = Ratio of drug concentration in rat ovary to plasma at 20 mg/kg, po measured after 2 hrs; settings: female
[33] = AUC (0 to t) in ICR mouse at 5 mg/kg, po measured up to 24 hrs by LC/MS/MS analysis; format: ADME, organism-based; set-up: time < 24 hrs, dose 5 mg/kg, route po; settings: in vivo
Estrogen receptor [34] = target: Estrogen receptor (Homo sapiens, UniProt P03372, Y537S); test: Antagonist activity at ERalpha Y537S mutant degradation in human SK-BR-3 cells incubated for 24 hrs in presence of beta-estradiol by luciferase gene assay; format: cell-based
Chain of Estrogen receptor (Homo sapiens, UniProt P03372, Y537S) (P03372 whole entry Y537S): as the sequence (P03372 whole entry D538G) above, with Y537S, G538D counted along it

BT-474 = test: Antiproliferative activity against human BT-474 cells assessed as inhibition of cell growth measured after 7 days by cell titre glo luminescence assay; format: functional, cell-based; settings: time 7.0 day

For CC(F)(F)c1cc(Cl)ccc1-c1sc2c(ccc3[nH]ncc32)c1Oc1ccc(OC2CN(CCCF)C2)cc1, the Activity [1] was “Dde”, the Activity [2] was “Tde” and the Activity [3] was “Dde”. It also gave an MRT [4] of 8.2 h, a clearance [5] of 7 mL/min/kg and a Kp at 2 h [6] of 0.7. The inhibition in vivo at 15 mg/kg (MCF7 [7]) was -17%, the Cmax [8] was 340 ng/mL and the Vd [9] was 2.7 L/kg. For the same molecule, the Tmax [10] was 3.3 h, the Activity [11] was “Dde” and the Activity [12] was “Active”. The Activity [13] was “Non-Toxic”, the Activity (T47D) was “Active” and the half-life [14] was 5.7 h. For the same molecule, the IC50 [15] was 3.2 nM, the concentration at 2 h [16] was 442 ng/mL and the concentration at 2 h [17] was 2410 ng/mL. The EC50 (Estrogen receptor [18]) was 1.1 nM, the concentration at 2 h [19] was 7100 ng/mL and the Activity (MDA-MB-361) was “Active”. For the same molecule, the Kp at 2 h [20] was 4, the half-life [21] was 4.6 h and the Activity [22] was “Dde”. The IC50 (Estrogen receptor [23]) was 16.1 nM, the IC50 (MCF7 [24]) was 1 nM and the bioavailability [25] was 67%. It also gave a Cmax [26] of 768 ng/mL, a Kp at 2 h [27] of 34.9 and a concentration at 2 h [28] of 212000 ng/mL. For the same molecule, the MRT [29] was 7 h, the MRT [30] was 6.4 h and the Kp at 2 h [31] was 3.6. The Kp at 2 h [32] was 7.3, the AUC(0-t) at 24 h [33] was 7710 ng·h/mL and the IC50 (Estrogen receptor [34]) was 10.3 nM. For the same molecule, the Activity (BT-474) was “Active”.
